In assay [1] the test system is GTPase KRas (Homo sapiens), P01116 [G12C]. As to the kind of experiment: Binding affinity to Hexahistidine-tagged recombinant human KRAS G12C mutant (1 to 169 residues) expressed in Escherichia coli assessed as kinact/Ki ratio.
Assay [2] has as its target von Hippel-Lindau disease tumor suppressor/SWI/SNF-related matrix-associated actin-dependent regulator of chromatin subfamily A member 2 (Homo sapiens) (UniProt P51531+P40337). As to the kind of experiment: PROTAC activity at SMARCA2/VHL in human MV4-11 cells assessed as induction of protein degradation by measuring maximal protein degradation relative to control. It counts as cell-based.

Assay [3] has as its target T1, von Hippel-Lindau disease tumor suppressor/Bcl-2-like protein 1 (Homo sapiens, UniProt Q07817+P40337). As to the kind of experiment: Protac activity at VHL/BCL-XL in human MOLT-4 cells assessed as induction of BCL-XL degradation incubated for 16 hrs by immunoblot analysis. It counts as cell-based. In general terms: In western blotting, separated proteins are transferred to a membrane and probed.

The target of assay [4] is T1, von Hippel-Lindau disease tumor suppressor/Bcl-2-like protein 1. As to the kind of experiment: Protac activity at VHL/BCL-XL in human MOLT-4 cells assessed as induction of protein degradation by measuring maximal degradation relative to control. The class given is cell-based.
Assay [5] concerns Cereblon/Bromodomain-containing protein 9 (Homo sapiens). As to the kind of experiment: PROTAC activity at CRBN/BRD9 in human HeLa cells assessed as induction of protein degradation by measuring maximal degradation relative to control.
Assay [6] concerns the target Cereblon/Bromodomain-containing protein 9 (Homo sapiens). As to the kind of experiment: PROTAC activity at CRBN/BRD9 in human HeLa cells assessed as protein degradation by Western blot analysis.
Assay [7] addresses T2, Zinc finger protein Helios (Homo sapiens, UniProt Q9UKS7). As to the kind of experiment: Induction of IKZF2 degradation in human GripTite 293 MSR cells. The class given is cell-based.
Assay [8] concerns the target T2, Zinc finger protein Helios. As to the kind of experiment: Induction of IKZF2 degradation in human GripTite 293 MSR cells assessed as maximal degradation relative to control. The class given is cell-based.
The target of assay [9] is T3, B-cell lymphoma 6 protein (Homo sapiens, UniProt P41182). As to the kind of experiment: Induction of BCL6 degradation in human SU-DHL-4 cells assessed as maximal degradation relative to control. It counts as cell-based.
Assay [10] deals with T3, B-cell lymphoma 6 protein. As to the kind of experiment: Induction of BCL6 degradation in human SU-DHL-4 cells. The class given is cell-based.
Assay [11] deals with GTPase KRas (Homo sapiens), P01116 [G12C]. As to the kind of experiment: Binding affinity to KRAS G12 mutant (unknown origin) assessed as kinact/Ki ratio.
Assay [12] has as its target T4, Estrogen receptor (Homo sapiens) (UniProt P03372).
T4 sequence (whole entry): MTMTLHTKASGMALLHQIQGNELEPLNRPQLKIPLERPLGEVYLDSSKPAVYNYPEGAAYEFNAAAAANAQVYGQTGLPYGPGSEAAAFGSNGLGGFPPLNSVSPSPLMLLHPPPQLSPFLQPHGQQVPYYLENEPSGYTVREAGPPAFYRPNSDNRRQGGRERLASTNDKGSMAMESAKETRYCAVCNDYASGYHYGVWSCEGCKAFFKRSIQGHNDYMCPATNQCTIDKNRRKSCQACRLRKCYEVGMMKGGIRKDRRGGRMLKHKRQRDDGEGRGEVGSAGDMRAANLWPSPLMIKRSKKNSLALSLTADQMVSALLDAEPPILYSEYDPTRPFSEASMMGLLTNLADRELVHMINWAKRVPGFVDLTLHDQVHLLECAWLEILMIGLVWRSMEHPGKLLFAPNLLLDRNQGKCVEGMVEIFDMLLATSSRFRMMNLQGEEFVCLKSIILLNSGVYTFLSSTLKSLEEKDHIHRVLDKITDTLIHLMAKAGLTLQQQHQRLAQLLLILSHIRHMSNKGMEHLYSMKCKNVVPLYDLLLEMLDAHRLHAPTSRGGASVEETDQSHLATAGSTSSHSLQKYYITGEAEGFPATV
As to the kind of experiment: Induction of ERalpha degradation in human MCF7 cells assessed as maximal degradation relative to control. It counts as cell-based.

The target in assay [13] is Tyrosine-protein kinase JAK1 (Homo sapiens, UniProt P23458). As to the kind of experiment: Inhibition of JAK1 (unknown origin).
Assay [14] deals with T5, Protein cereblon/RAC-alpha serine/threonine-protein kinase (Homo sapiens, UniProt P31749+Q96SW2). As to the kind of experiment: Protac activity at CRBN/Akt1 in human JeKo-1 cells assessed as Akt1 degradation by immunoblot analysis. It counts as cell-based.
Assay [15] has as its target T5, Protein cereblon/RAC-alpha serine/threonine-protein kinase. As to the kind of experiment: Protac activity at CRBN/Akt1 in human JeKo-1 cells assessed as induction of Akt1 degradation by measuring maximal protein degradation relative to control. The class given is cell-based.

The values below come from ChEMBL document CHEMBL5346948, “Expanding Chemical Probe Space: Quality Criteria for Covalent and Degrader Probes” (J Med Chem, 2023).

Each structure is given as a SMILES string. Bounds are passed on as bounds.

`C=CC(=O)N1CC(N2CCN(C(=O)CNc3cc(C4(C)CC4)c(Cl)cc3O)CC2)C1`: in assay [1], the Ratio was found to be 250 s⁻¹ M⁻¹. By Emax is commonly meant the greatest response seen or fitted, relative to the assay's reference. As to `Cc1ncsc1-c1ccc([C@H](CC[C@H](C)CCN2CCC(c3ccc4c(c3)n(C3CCCC3)c3nc(=O)c5c(Br)cccc5n43)CC2)NC(=O)[C@@H]2C[C@@H](O)CN2C(=O)[C@@H](NC(=O)C2(F)CC2)C(C)(C)C)cc1`, in assay [2], the Emax was determined as 81%. A word on the DC50: it is the concentration giving 50% degradation. In the case of `Cc1ncsc1-c1ccc([C@H](C)NC(=O)[C@@H]2C[C@@H](O)CN2C(=O)[C@@H](NC(=O)CCCCCC(=O)N2CCN(CC[C@H](CSc3ccccc3)Nc3ccc(S(=O)(=O)NC(=O)c4ccc(N5CCN(CC6=C(c7ccc(Cl)cc7)CCC(C)(C)C6)CC5)cc4)cc3S(=O)(=O)C(F)(F)F)CC2)C(C)(C)C)cc1` [DT-2216], the DC50 in [3] was determined as 63 nM. The Emax in assay [4] is 91%. With `COc1cc(-c2cn(C)c(=O)c(C)c2C)cc(OC)c1CN1CC[C@H](N2CCN(c3ccc(N[C@H]4CCC(=O)NC4=O)cc3F)CC2)C(F)(F)C1` [SENDEGOBRESIB], the Emax in assay [5] came to 96%. Besides, the DC50 in [6] is 3 nM. Regarding `O=C1CCC(N2Cc3cc(C4CCN(Cc5ccccc5)CC4)ccc3C2=O)C(=O)N1` (centres undefined), the DC50 in assay [7] was determined as 11 nM. The Emax in [8] came to 69%. As to `C=CS(=O)(=O)NC1CCN(C(=O)CNc2cc(I)c(Cl)cc2O)CC1`, the Ratio in assay [1] is 0.33 s⁻¹ M⁻¹. Same read-out and setting: to `C=CC(=O)N1CCN(c2ncnc3c(F)c(-c4c(O)cccc4F)c(Cl)cc23)CC1` belongs 1100 s⁻¹ M⁻¹. For the molecule `CNC(=O)COc1cc2cc(Nc3nc(N4C[C@H](C)C[C@H](C)C4)ncc3Cl)ccc2n(C)c1=O`, the Emax in assay [9] was more than 80%. This molecule showed a DC50 in assay [10] of 20 nM. Consider `C=CC(=O)N1CCN(c2nc(OC[C@@H]3CCCN3C)nc3c(F)c(-c4nc(N)cc(C)c4C(F)(F)F)c(Cl)cc23)[C@@H](C)C1`, for which, in [11], the Ratio was 27000 s⁻¹ M⁻¹. Take `COc1cc(-c2cn(C)c(=O)c3cnc(N4CCC4)cc23)cc(OC)c1CN1CCC(CN2CCC3(CC2)CN(c2ccc4c(c2)C(=O)N([C@H]2CCC(=O)NC2=O)C4)C3)CC1`: the maximal response (Emax) in assay [5] came to 97%. Besides, the DC50 in assay [6] is less than 1 nM. For `O=C1CC[C@H](N2Cc3cc(N4CCN(CC5CCN(c6ccc([C@@H]7c8ccc(O)cc8CC[C@@H]7c7ccccc7)cc6)CC5)CC4)ccc3C2=O)C(=O)N1`, the Emax in [12] is 80%. As a reminder, the IC50 is the concentration that inhibits the measured activity by half. As to `CS(=O)(=O)N1CC[C@H](C#CC(=O)N2CCC[C@@H](c3ccc(Cl)c(Cl)c3)C2)C1`, in [13], the IC50 came out at 32 nM. For the molecule `Cc1ncsc1-c1ccc([C@H](C)NC(=O)[C@@H]2C[C@@H](O)CN2C(=O)[C@@H](NC(=O)CCCCCCCCCCNC(=O)CCc2cccc(-c3ccc4nc(-c5cccnc5N)n(-c5ccc(C6(N)CCC6)cc5)c4n3)c2)C(C)(C)C)cc1`, the half-maximal degradation concentration (DC50) in [14] is 23 nM. Moreover, the Emax in [15] is more than 80%.
